# Patent US12697337B2, “Solid dispersions” (InventisBio Co., Ltd., priority 2021, dated 2026)
# Assays:
# KRAS G12C = KRAS G12C (Homo sapiens, UniProt P01116, G12C); settings: as described in previous applications; cited from earlier work
# [1] = pKa measurement of Compound 1; type: physicochemical; settings: measured pKa; free base
# Source text: Compound 1 has a measured pKa of around 1 and typically exists in a free base form. Unless otherwise explicitly stated to the contrary, Compound 1 herein should be understood as existing in its free base form as opposed to a salt formed with an acid or base. The synthesis and utility of Compound 1 has been described in Applicant's previous applications, such as International Application Nos. PCT/CN2020/091274, filed May 20, 2020, published as WO2020/233592, PCT/CN2020/137276, filed Dec. 17, 2020, and PCT/CN2019/126230, filed Dec. 18, 2019, the contents of each of which are herein incorporated by reference in their entireties. […] PCT/CN2020/137276 and PCT/CN2019/126230 also describe various isolated forms, substantially pure forms, and/or solid forms of Compound 1 and their preparation methods.
# various cancers = settings: as described in previous applications; cited from earlier work
# [2] = 1-week stability evaluation of SDD; type: physicochemical; settings: for Appearance / Purity (%) / XRPD: 1 week; for Initial purity (%): before storage
# Description: A brief description of the methods used for PLM, XRPD, Purity and mDSC analysis of the above SDD samples is shown below. • PLM analysis of the SDD samples were conducted using Nikon LV100POL equipped with 5 megapixel CCD, with the physical lens set at 20×. • For XRPD analysis, samples were spread onto the Si-substrate for XRPD test using the parameters as below: Tube: Cu: K-Alpha (λ=1.5418 Å); Generator: Voltage: 40 kV; Current: 40 mA; Scan Scope: 2 or 3 to 40 deg; Time/step(s) 0.06 s; Total time(s) 120 s or 117.36 s. • For mDSC analysis, SDD powders were weighed into Tzero aluminum sample pan from TA Instruments covered by pinhole lid for mDSC test using the parameters as below: Start temperature at 30° C.; Modulate +/−1° C. every 60 seconds; Ramp 2° C./min to 300° C. • The UPLC method used for the assay and purity analysis above is UPLC Method 1, which is shown below:
# Appropriate quantity of SDDs and crystalline Compound 1 (Form B) were placed into 40-mL vials respectively.
# The samples (closed) were covered by plastic cap tightly and sealed by parafilm and samples (open) were just covered by aluminum foil with pinholes. Then they were stored at 2-8° C., 25° C./60% RH and 40° C./75% RH stability chamber respectively for 1 week. The samples were analyzed by XRPD to check the physical stability, and meanwhile dissolved with diluent for UPLC analysis (UPLC Method 1) to check the chemical stability.
# [3] = Solid state stability of Form B; type: physicochemical; settings: for Purity-7 d (Area %): open, 7 days
# Description: Solid State Stability of Form B: About 10 mg of Form B was open placed at 40° C./75% RH and 60° C. for 7 days and at 25° C./92.5% RH for 10 days, respectively. Prepare samples in duplicate (n =2) per condition. The solids were analyzed by XRPD and HPLC (only for 40° C./75% RH and 60° C.).
# [4] = Dynamic moisture sorption analysis (DVS); type: physicochemical
# Description: Dynamic Moisture Sorption Analysis (DVS)
# Small scale up of Form B: Form B was small scaled up for DVS analysis, solubility and stability studies. 103.02 mg of Compound 1 in Form A was dissolved in 5 mL of MeOH (48V) at RT. After filtration, 10 mL of water was added into the filtrate. Precipitation occurred quickly. The suspension was kept stirring at RT for about 2 hours. Solid samples were collected by filtration, dried under vacuum at 50° C. overnight. 94.16 mg solid was obtained with a yield of 91%. This solid was used for the DVS testing.
# [5] = Dissolution evaluation in FaSSIF medium; type: physicochemical
# Description: Dissolution evaluation in FaSSIF medium: To evaluate in-vitro release performance of SDDs, dissolution in FaSSIF (pH=6.5±0.05) was performed, and the crystalline Compound 1 (Form B) was also tested as control.
# Appropriate amount of Compound 1 or SDD (SDD-0 to SDD-8) was weighed into 40-mL glass vials respectively, and then added 10 mL of FaSSIF medium to a target API concentration of 1 mg/mL, followed by hand shake to suspend well. Place the glass bottle on 37° C. hot-stage by stirring magnetically at 200 rpm. At each time point of 10 min, 20 min, 40 min, 60 min and 120 min, 500 μL suspension was pipetted respectively and centrifuged (14,000 rpm, 3 min) to isolate supernatant and dilute with diluent for UPLC analysis. Finally, the pH value of solution (120 min) were measured by pH meter.
# The UPLC method used for the dissolution analysis above is UPLC Method 2, which is shown below: […]
# [6] = PCT/CN2020/137276 and PCT/CN2019/126230; cited from earlier work
# [7] = Table 6, FaSSIF (10 mL) pH 6.5, 37° C., target API 1 mg/mL
# [8] = Table 11, FaSSIF (10 mL) pH 6.5
# KRAS G12C, sequence (P01116 1-188 isoform P01116-2 G12C): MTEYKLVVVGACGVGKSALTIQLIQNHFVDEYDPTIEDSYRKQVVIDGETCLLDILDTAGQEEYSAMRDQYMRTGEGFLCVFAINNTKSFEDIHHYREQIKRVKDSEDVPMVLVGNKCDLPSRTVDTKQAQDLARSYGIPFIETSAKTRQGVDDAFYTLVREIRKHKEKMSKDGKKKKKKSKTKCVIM
smiles,measurement,setting,value
C=CC(=O)N1C[C@H](C)N(c2nc(=O)n(-c3c(C4CC4)ncnc3C3CC3)c3nc(-c4c(N)cccc4F)c(F)cc23)C[C@H]1C [Compound 1],KRAS G12C inhibition,KRAS G12C,potent KRAS G12C inhibitor
same,pKa,[1],~1
same,efficacy in in vivo mouse models,various cancers,effective in treating various cancers
C=CC(=O)N1C[C@H](C)N(c2nc(=O)n(-c3c(C4CC4)ncnc3C3CC3)c3nc(-c4c(N)cccc4F)c(F)cc23)C[C@H]1C [Compound 1 (Form B)],Appearance,"[2]; Table 8, 2-8° C., closed",Yellow powder
same,Purity (%),"[2]; Table 8, 2-8° C., closed",98.81%
same,XRPD,"[2]; Table 8, 2-8° C., closed",Crystal
same,Appearance,"[2]; Table 8, 25° C./60% RH, open",Yellow powder
same,Purity (%),"[2]; Table 8, 25° C./60% RH, open",98.86%
same,XRPD,"[2]; Table 8, 25° C./60% RH, open",Crystal
same,Appearance,"[2]; Table 8, 40° C./75% RH, open",Yellow powder
same,Purity (%),"[2]; Table 8, 40° C./75% RH, open",98.79%
same,XRPD,"[2]; Table 8, 40° C./75% RH, open",Crystal
same,Initial purity (%),[2]; Table 8,98.75%
same,Appearance,"[2]; Table 12, 2-8° C., closed",Yellow powder
same,Purity (%),"[2]; Table 12, 2-8° C., closed",98.81%
same,XRPD,"[2]; Table 12, 2-8° C., closed",Crystal
same,Appearance,"[2]; Table 12, 25° C./60% RH, open",Yellow powder
same,Purity (%),"[2]; Table 12, 25° C./60% RH, open",98.86%
same,XRPD,"[2]; Table 12, 25° C./60% RH, open",Crystal
same,Appearance,"[2]; Table 12, 40° C./75% RH, open",Yellow powder
same,Purity (%),"[2]; Table 12, 40° C./75% RH, open",98.79%
same,XRPD,"[2]; Table 12, 40° C./75% RH, open",Crystal
same,Initial purity (%),[2]; Table 12,98.75%
same,XRPD,"[3]; 25° C./92.5% RH, after 10 d",Unchanged
same,chemical stability,[3]; 40° C./75% RH for 7 days,chemically stable
same,XRPD,"[3]; 40° C./75% RH, after 7 d",Unchanged
same,Purity-7 d (Area %),[3]; 40° C./75% RH,98.97 Area %
same,purity decrease,[3]; 60° C. for 7 days,0.16%
same,XRPD,"[3]; 60° C., after 7 d",Unchanged
same,Purity-7 d (Area %),[3]; 60° C.,98.82 Area %
same,physical stability,"[3]; at test conditions (40° C./75% RH, 60° C., 25° C./92.5% RH)",physically stable
same,Initial Purity (Area %),[3]; before storage,98.98 Area %
same,water absorbed (DVS),"[4]; 0-80% RH, 25° C.",~ 0.84%
same,crystal form after DVS testing,[4]; XRPD after DVS,without changing of crystal form
same,"API concentration in dissolution medium, 10 min",[5]; [7],12.5 µg/mL
same,"API concentration in dissolution medium, 20 min",[5]; [7],13.8 µg/mL
same,"API concentration in dissolution medium, 40 min",[5]; [7],15.0 µg/mL
same,"API concentration in dissolution medium, 60 min",[5]; [7],15.5 µg/mL
same,"API concentration in dissolution medium, 120 min",[5]; [7],15.9 µg/mL
same,pH,"[5]; Table 6, pH value of solution at 120 min of FaSSIF dissolution",6.42
same,"API concentration in dissolution medium, 10 min",[5]; [8],10.8 µg/mL
same,"API concentration in dissolution medium, 20 min",[5]; [8],12.5 µg/mL
same,"API concentration in dissolution medium, 40 min",[5]; [8],14.3 µg/mL
same,"API concentration in dissolution medium, 60 min",[5]; [8],14.2 µg/mL
same,"API concentration in dissolution medium, 120 min",[5]; [8],14.9 µg/mL
same,pH,"[5]; Table 11, pH of solution after FaSSIF dissolution",6.41
same,"API concentration in dissolution medium, 10 min","[5]; Table 15, FaSSIF (10 mL)",8.1 µg/mL
same,"API concentration in dissolution medium, 20 min","[5]; Table 15, FaSSIF (10 mL)",8.4 µg/mL
same,"API concentration in dissolution medium, 40 min","[5]; Table 15, FaSSIF (10 mL)",9.0 µg/mL
same,"API concentration in dissolution medium, 60 min","[5]; Table 15, FaSSIF (10 mL)",9.1 µg/mL
same,"API concentration in dissolution medium, 120 min","[5]; Table 15, FaSSIF (10 mL)",9.7 µg/mL
same,pH,"[5]; Table 15, pH of solution after FaSSIF dissolution",6.48
same,"relative stability among crystalline Forms A, B, C, D",[6],more stable crystalline form
